Like-named read-outs stand apart in the source and are kept apart here.
Tests used:
[1] = test system: consortium of selected bacterial species, Escherichia coli (ATCC #25922), Pseudomonas aeruginosa (ATCC #9027, Staphylococcus aureus (ATCC #6538) and Klebsiella …); assay: Synergy test, high resolution MIC microtiter plate assay against a bacterial consortium; assay type: cell-based; settings: M9GY medium, 35° C., 24 hrs, visual turbidity, active ingredient basis
From the text: (§1) One measure of synergism is the industrially accepted method described by Kull, F. C.; Eisman, P. C.; Sylwestrowicz, H. D. and Mayer, R. L., in Applied Microbiology 9:538-541 (1961), using the ratio determined by the formula: Qa/QA+Qb/QB=Synergy Index (“SI”) wherein: QA=concentration of compound A (first component) in ppm, acting alone, which produced an end point (MIC of Compound A). QA=concentration of compound A in ppm, in the mixture, which produced an end point. QB=concentration of compound B (second component) in ppm, acting alone, which produced an end point (MIC of Compound B). Qb=concentration of compound B in ppm, in the mixture, which produced an end point.
(§2) When the sum of Qa/QA and Qb/QB is greater than one, antagonism is indicated. […] The lower the SI, the greater the synergy shown by that particular mixture. The minimum inhibitory concentration (MIC) of a microbicide is the lowest concentration tested under a specific set of conditions that prevents the growth of added microorganisms.
(§3) Synergy tests were conducted using standard microtiter plate assays with media designed for optimal growth of the test microorganism. Minimal salt medium supplemented with 0.2% glucose and 0.1% yeast extract (M9GY medium) was used for testing bacteria. In this method, a wide range of combinations of microbicides was tested by conducting high resolution MIC assays in the presence of various concentrations of DMDMH and Dazomet or THNM and Dazomet. High resolution MICs were determined by adding varying amounts of microbicide to one column of a microtiter plate and doing subsequent […] dilutions using an automated liquid handling system to obtain a series of endpoints ranging from 2 ppm to 1,000 ppm active ingredient.
(§4) The synergy of the combinations of the present invention was determined against a consortium of selected bacterial species, Escherichia coli (ATCC #25922), Pseudomonas aeruginosa (ATCC #9027, Staphylococcus aureus (ATCC #6538) and Klebsiella pneumoniae (ATCC #13883). The consortium was prepared using approximately 1×10^6 CFU per mL of each species. These microorganisms are representative of natural contaminants in many industrial applications. The plates were visually evaluated for microbial growth (turbidity) to determine the MIC after selected incubation times at 35° C. after 24 hrs.
(§5) In each test, Second Component (B) was Dazomet and the First Component (A) was DMDMH.

[2] = as above; assay type: cell-based; settings: M9GY medium, 35° C., 24 hrs, visual turbidity, active ingredient basis
From the text: as §1, §2, §3, §4, §5

For `CC1(C)C(=O)N(CO)C(=O)N1CO` [DMDMH, dimethylol-dimethylhydantoin], the “MIC of DMDMH alone (QA)” value ([1]; Table 1) was 200 µg/mL.
In the case of `O=[N+]([O-])C(CO)(CO)CO` [THNM, tris(hydroxymethyl)nitromethane], the MIC ([2]; Table 2, read-out: MIC of THNM alone (QA)) is reported as 400 µg/mL.
For `CN1CSC(=S)N(C)C1` [Dazomet, 3,5-dimethyl-1,3,5-thiadiazinane-2-thione], the MIC ([2]; Table 1, read-out: MIC of Dazomet alone (QB)) was 100 µg/mL and the “MIC of Dazomet alone (QB)” value ([1]; Table 2) was 100 µg/mL.

From patent US20180168160A1, “MICROBICIDAL COMPOSITION” (Rohm and Haas Company, priority 2015, published 2018)
